Data from US20250066353A1, “VANIN-1 INHIBITORS” (ATHOS THERAPEUTICS, INC., priority 2023, published 2025).

Target: Vanin-1 (Homo sapiens (Human), UniProt O95497)
Test: VNN1 inhibitor binding assay (Pantothenate-AMC fluorescence)
Assay type: biochemical
Settings: not given
Procedure: Vanin-1 inhibitor binding assays for selected compounds as described herein, and reference compound RR6 (also “(R)-2,4-dihydroxy-3,3-dimethyl-N-(3-oxo-4-phenylbutyl)butanamide”) were examined and the IC50 values of were determined.
5 μL of 3× (45 μM) of Pantothenate-AMC to achieve final concentrations of 15 μM (0.25% DMSO final) were added in a 384 well assay plate followed by the addition of 5 μL of 3× the desired concentration of the tested compounds (Compound 1; Compound 2; and RR6) in 0.75% DMSO to designated wells (0.25% of DMSO final). The range of the compound concentrations tested was 10, 3.33, 1.11, 0.37, 0.12, 0.04, 0.01, 0.0046, 0.001, and 0.0005 μM. 5 μL of 0.75% DMSO were also added to positive and negative control wells.
5 μL of 1.4 ng/μL Vanain-1 was added to the assay plate to achieve a final amount of 7 ng/well, and covered with plate sealer. Another 5 μL of assay buffer was added to negative controls and the assay plate was then centrifuged briefly (1000 rpm for 30 s) in a plate centrifuge. The assay plate was incubated in the dark for 20 minutes at room temperature and immediately read on an Envision 2105, PerkinElmer multimode plate reader.
The fluorescence read was captured at excitation wavelength of 355 nm and emission wavelength of 460 nm. Percent inhibition of the test compounds was calculated using the following equation: […]
In the above equation, “A” is the relative fluorescence units of the test compound (test compound+Pantothenate-AMC+Vanin1); “B” is the relative fluorescence units of the average minimum (DMSO+Pantothenate-AMC+assay buffer); and “C” is the relative fluorescence units of the average maximum (DMSO+Pantothenate-AMC+Vanin1).

Sequence of Vanin-1 (O95497 22-513): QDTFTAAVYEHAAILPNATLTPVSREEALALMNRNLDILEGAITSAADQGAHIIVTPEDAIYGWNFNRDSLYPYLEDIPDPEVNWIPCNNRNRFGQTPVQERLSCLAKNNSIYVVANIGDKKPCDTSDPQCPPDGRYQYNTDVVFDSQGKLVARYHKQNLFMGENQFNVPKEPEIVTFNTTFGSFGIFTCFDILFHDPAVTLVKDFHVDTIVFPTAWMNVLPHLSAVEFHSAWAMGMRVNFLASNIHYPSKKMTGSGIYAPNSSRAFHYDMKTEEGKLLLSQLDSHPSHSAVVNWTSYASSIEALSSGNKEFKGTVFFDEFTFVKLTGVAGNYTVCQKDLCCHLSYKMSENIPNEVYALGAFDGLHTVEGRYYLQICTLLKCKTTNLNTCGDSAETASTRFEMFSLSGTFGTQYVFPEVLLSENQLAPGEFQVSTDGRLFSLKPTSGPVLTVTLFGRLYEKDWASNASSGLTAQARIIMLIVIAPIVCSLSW

Compound	IC50 [µM]
CC(C)(CO)[C@@H](O)C(=O)NCCC(=O)Cc1ccccc1 [RR6, (R)-2,4-dihydroxy-3,3-dimethyl-N-(3-oxo-4-phenylbutyl)butanamide, reference compound]	1 to 10

Same assay, conditions: 15 μM Pantothenate-AMC, 7 ng/well Vanin-1, 20 minutes at room temperature; read-out: Vanin-1 IC50

Compound	IC50 [µM]
CCC(=O)NCCN1Cc2nc(NCc3ccc(F)cc3C)ccc2C1=O [Compound 78, N-(2-(2-((4-fluoro-2-methylbenzyl)amino)-5-oxo-5,7-dihydro-6H-pyrrolo[3,4-b]pyridin-6-yl)ethyl)propionamide]	1 to 10
CN(C)CCCN1Cc2nc(NCc3cccnc3)ccc2C1=O [Compound 13, 6-(3-(Dimethylamino)propyl)-2-((pyridin-3-ylmethyl)amino)-6,7-dihydro-5H-pyrrolo[3,4-b]pyridin-5-one]	1 to 10
CC(=O)NCCN1Cc2nc(NCc3ccncc3)ccc2C1=O [Compound 27, N-(2-(5-oxo-2-((pyridin-4-ylmethyl)amino)-5,7-dihydro-6H-pyrrolo[3,4-b]pyridin-6-yl)ethyl)acetamide]	1 to 10
O=C1NCCc2nc(NCc3cccnc3)ccc21 [Compound 2, 2-((Pyridin-3-ylmethyl)amino)-7,8-dihydro-1,6-naphthyridin-5(6H)-one]	1 to 10
COc1ccc(F)cc1CNc1ccc2c(n1)CN(CCNC(C)=O)C2=O [Compound 29, N-(2-(2-((5-fluoro-2-methoxybenzyl)amino)-5-oxo-5,7-dihydro-6H-pyrrolo[3,4-b]pyridin-6-yl)ethyl)acetamide]	1 to 10
CC(=O)NCCCN1Cc2nc(NCc3cccnc3)ccc2C1=O [Compound 15, N-(3-(5-Oxo-2-((pyridin-3-ylmethyl)amino)-5,7-dihydro-6H-pyrrolo[3,4-b]pyridin-6-yl)propyl)acetamide]	1 to 10
CC(=O)NCCN1Cc2nc(NCc3cncc(F)c3)ccc2C1=O [Compound 26, N-(2-(2-(((5-fluoropyridin-3-yl)methyl)amino)-5-oxo-5,7-dihydro-6H-pyrrolo[3,4-b]pyridin-6-yl)ethyl)acetamide]	1 to 10
COc1ccccc1CNc1ccc2c(n1)CN(CCNC(C)=O)C2=O [Compound 28, N-(2-(2-((2-methoxybenzyl)amino)-5-oxo-5,7-dihydro-6H-pyrrolo[3,4-b]pyridin-6-yl)ethyl)acetamide]	1 to 10
CC(=O)NC(C)(C)CN1Cc2nc(NCc3cccnc3)ccc2C1=O [Compound 38, N-(2-methyl-1-(5-oxo-2-((pyridin-3-ylmethyl)amino)-5,7-dihydro-6H-pyrrolo[3,4-b]pyridin-6-yl)propan-2-yl)acetamide]	1 to 10
CC(=O)NCCN1Cc2nc(NCc3cnccn3)ccc2C1=O [Compound 50]	1 to 10
CC(=O)NCCN1Cc2nc(NCc3cc(F)c(F)c(F)c3)ccc2C1=O [Compound 71, N-(2-(5-oxo-2-((3,4,5-trifluorobenzyl)amino)-5,7-dihydro-6H-pyrrolo[3,4-b]pyridin-6-yl)ethyl)acetamide]	1 to 10
CCC(=O)NCCN1Cc2nc(NCc3cc(F)c(F)c(F)c3)ccc2C1=O [Compound 72, N-(2-(5-oxo-2-((3,4,5-trifluorobenzyl)amino)-5,7-dihydro-6H-pyrrolo[3,4-b]pyridin-6-yl)ethyl)propionamide]	1 to 10
CCC(=O)NCCN1Cc2nc(NCc3cnccc3C(F)(F)F)ccc2C1=O [Compound 74, N-(2-(5-oxo-2-(((4-(trifluoromethyl)pyridin-3-yl)methyl)amino)-5,7-dihydro-6H-pyrrolo[3,4-b]pyridin-6-yl)ethyl)propionamide]	1 to 10
CC(=O)NCCN1Cc2nc(N[C@H](C)c3cccnc3)ccc2C1=O [Compound 22, (R)—N-(2-(5-oxo-2-((1-(pyridin-3-yl)ethyl)amino)-5,7-dihydro-6H-pyrrolo[3,4-b]pyridin-6-yl)ethyl)acetamide]	> 10
CN(C)C(C)(C)CN1Cc2nc(NCc3cccnc3)ccc2C1=O [Compound 12, 6-(2-(Dimethylamino)-2-methylpropyl)-2-((pyridin-3-ylmethyl)amino)-6,7-dihydro-5H-pyrrolo[3,4-b]pyridin-5-one]	1 to 10
O=C1c2ccc(NCc3cccnc3)nc2CN1c1ccccc1 [Compound 11]	> 10
O=C1c2ccc(NCc3cccnc3)nc2CN1Cc1cnccn1 [Compound 17]	1 to 10
CN(C)CCN1Cc2nc(NCc3cccnc3)ccc2C1=O [Compound 4, 6-(2-(Dimethylamino)ethyl)-2-((pyridin-3-ylmethyl)amino)-6,7-dihydro-5H-pyrrolo[3,4-b]pyridin-5-one]	1 to 10
N#Cc1cncc(CNc2ccc3c(n2)CN(CCNC(=O)C2CC2)C3=O)c1 [Compound 43, N-(2-(2-(((5-cyanopyridin-3-yl)methyl)amino)-5-oxo-5,7-dihydro-6H-pyrrolo[3,4-b]pyridin-6-yl)ethyl)cyclopropanecarboxamide]	> 10
CC(C)N1Cc2nc(NCc3cccnc3)ccc2C1=O [Compound 19]	1 to 10
CC(=O)NCCN1Cc2nc(NCc3ccc(C#N)nc3)ccc2C1=O [Compound 40, N-(2-(2-(((6-cyanopyridin-3-yl)methyl)amino)-5-oxo-5,7-dihydro-6H-pyrrolo[3,4-b]pyridin-6-yl)ethyl)acetamide]	1 to 10

Same assay, conditions: comparison with reference compound RR6

Compound	potency (half-maximal inhibitory concentration) compared to RR6
O=C1NCc2nc(NCc3cccnc3)ccc21 [Compound 1, 2-((Pyridin-3-ylmethyl)amino)-6,7-dihydro-5H-pyrrolo[3,4-b]pyridin-5-one]	up to two orders of magnitude greater than RR6
O=C1NCCc2nc(NCc3cccnc3)ccc21 [Compound 2, 2-((Pyridin-3-ylmethyl)amino)-7,8-dihydro-1,6-naphthyridin-5(6H)-one]	comparable to RR6

System: not listed separately
Test: PAMPA permeability assay
Assay type: in vitro ADME
Settings: 20 μM donor in PBS/MeOH 90:10, 5 hours at room temperature
Excerpt: Parallel artificial membrane permeability (PAMPA) assay is a non-cell based assay designed to predict in vivo biological membrane permeability of drugs in early stage of drug discovery. The 96-well Corning Gentest Pre-coated PAMPA Plate System (catalog no. 353015) was used to perform the assay. The Corning Gentest Pre-coated PAMPA plate system was designed by 96-well insert system with a […] PVDF (polyvinylidene fluoride) filter plate which has been pre-coated with structured tri-layers of phospholipids (lipid/oil/lipid) and a matched receiver microplate.
Donor solutions of test compounds (300 μL, 20 μM in PBS/MeOH 90:10) were added to each well of the donor plate. 200 μL of PBS/MeOH 90:10 was added to each well of the acceptor plate. The acceptor plate was coupled with the donor plate and incubated for 5 hours at room temperature (RT) without agitation. In each plate, compounds were tested in triplicate. At the end of the incubation, drug concentration in the initial donor solution, acceptor and the donor wells were determined using LC/MS/MS. A five (5) points standard curve from 0.1 to 1000 nM for each test compound were prepared. Analyte samples were diluted to within standard curve concentration with ACN/H2O 50:50 prior analysis.
All samples were analyzed by electrospray ionization (ESI) liquid chromtograph/mass spectrometry (LC/MS) system utilizing Sciex 5500 quadropule ion trap (Qtrap) mass spectrometry with Shidmazu Nexera X2 UHPLC. The LC-MS/MS instrument monitored each of the test compound in the study based of their respective mass-to-charge (m/z) transitions and MS parameters. Chromatographic separation was achieved on Phenomenex Luna C18 column (50×2.0 mm, 3 μm particle size) by using a gradient elution: mobile phase A contains 0.1% formic acid in water and mobile phase B contains 0.1% formic acid in acetonitrile; A/B (99:1) from 0 to 1 minutes; to A/B (1:99) from 1 to 4 minutes; A/B (1:99) from 4 to 8 minutes; to A/B (99:1) from 8 to 8.20 minutes; A/B (99:1) from 8.2 to 9 minutes. The flow rate was 0.4 mL/min and the column temperature was maintained at 35° C. and autosampler temperature at 4° C. For detection, the electrospray ionization operated in the positive mode using multiple reaction monitoring (MRM).
Data acquisition, and peak integrations were obtained by Analyst® Version 1.7.1 (Sciex) operating with Windows® (Microsoft). The standard curve regressions and sample concentrations were generated and calculated by Analyst®. Concentrations in the sample solutions were determined based on the measured peak area ratios from the response of the analyte to the internal standard with reference to the standard calibration curve. All sample calculations were calculated using a linear regression with 1/x2 weighting (where x is the concentration of given calibration standard level).
Permeability of the test compounds was calculated using the following formula:
Where: • A=filter area=[…] • VA=acceptor well volume (0.2 mL) • VD=donor well volume […], • t=incubation time=5 hours=18000 seconds, • CA(t)=compound concentration in acceptor well at time t (nM), • CD(t)=compound concentration in donor well at time t (nM), and […]

Compound	Papp at 5 h, 20 µM [×10⁻⁶ cm/s]
[2H]C([2H])([2H])C([2H])([2H])C(=O)NCCN1Cc2nc(NCc3c(F)cc(F)cc3F)ccc2C1=O [Compound 204, N-(2-(5-oxo-2-((2,4,6-trifluorobenzyl)amino)-5,7-dihydro-6H-pyrrolo[3,4-b]pyridin-6-yl)ethyl)propenamide-d5]	1.07
CCC(=O)NCCN1Cc2nc(NCc3c(F)cc(F)cc3F)ccc2C1=O [Compound 73, N-(2-(5-oxo-2-((2,4,6-trifluorobenzyl)amino)-5,7-dihydro-6H-pyrrolo[3,4-b]pyridin-6-yl)ethyl)propionamide]	0.79
CC(=O)NCCN1Cc2nc(NCc3c(F)cc(F)cc3F)ccc2C1=O [Compound 37, N-(2-(5-oxo-2-((2,4,6-trifluorobenzyl)amino)-5,7-dihydro-6H-pyrrolo[3,4-b]pyridin-6-yl)ethyl)acetamide]	0.68
[2H]C([2H])([2H])C(=O)NCCN1Cc2nc(NCc3c(F)cc(F)cc3F)ccc2C1=O [Compound 202, N-(2-(5-oxo-2-((2,4,6-trifluorobenzyl)amino)-5,7-dihydro-6H-pyrrolo[3,4-b]pyridin-6-yl)ethyl)acetamide-2,2,2-d3]	1.83

Same assay, conditions: deuterated vs non-deuterated (Compounds 37 and 73, respectively)

Compound	permeability compared to non-deuterated counterparts
[2H]C([2H])([2H])C([2H])([2H])C(=O)NCCN1Cc2nc(NCc3c(F)cc(F)cc3F)ccc2C1=O [Compound 204, N-(2-(5-oxo-2-((2,4,6-trifluorobenzyl)amino)-5,7-dihydro-6H-pyrrolo[3,4-b]pyridin-6-yl)ethyl)propenamide-d5]	improved permeability
[2H]C([2H])([2H])C(=O)NCCN1Cc2nc(NCc3c(F)cc(F)cc3F)ccc2C1=O [Compound 202, N-(2-(5-oxo-2-((2,4,6-trifluorobenzyl)amino)-5,7-dihydro-6H-pyrrolo[3,4-b]pyridin-6-yl)ethyl)acetamide-2,2,2-d3]	improved permeability
